One series has as its target T1, human mAChR M4 (Homo sapiens, UniProt P08173).
T1 construct: expressed in transfected cells; host or cells: CHO-K1 (American Type Culture Collection), stably expressing hM4 and Gqi5
T1 sequence (P08173 1-479): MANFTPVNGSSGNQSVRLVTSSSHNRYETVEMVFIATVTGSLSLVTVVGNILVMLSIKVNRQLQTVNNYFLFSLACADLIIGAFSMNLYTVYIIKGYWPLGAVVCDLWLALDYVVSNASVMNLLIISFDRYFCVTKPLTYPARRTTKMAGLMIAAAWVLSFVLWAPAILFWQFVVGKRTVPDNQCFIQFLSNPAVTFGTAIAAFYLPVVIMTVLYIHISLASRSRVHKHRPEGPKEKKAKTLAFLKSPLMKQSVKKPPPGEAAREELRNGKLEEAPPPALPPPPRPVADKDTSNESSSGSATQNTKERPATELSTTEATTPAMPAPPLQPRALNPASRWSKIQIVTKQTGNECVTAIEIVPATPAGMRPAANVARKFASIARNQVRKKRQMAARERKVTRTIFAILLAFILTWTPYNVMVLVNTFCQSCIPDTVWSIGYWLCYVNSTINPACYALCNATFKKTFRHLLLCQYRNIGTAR
Kind of series: mAChR M4 cell-based functional assay: calcium mobilization (Fluo-4, FDSS), potentiation of EC20 acetylcholine response in hM4-Gqi5 CHO-K1 cells. The following applies: human M4; for Emax at 30 µM: CHO-K1, % ACh maximum at 30 μM; for EC50: potentiation of EC20 acetylcholine response, calcium mobilization. In outline:
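Readout is the fluorescence-ratio rise at 1 Hz on FDSS, with PAM activity taken as concentration-dependent enhancement of the EC20 acetylcholine response, fitted four-parameter for EC50/Emax. hM4-Gqi5 CHO-K1 cells carried Fluo-4 AM dye; test compounds (11 points, 1:3) preceded EC20 acetylcholine additions at 144 s and 230 s.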
For orientation: Calcium assays in cells follow changes in intracellular calcium, usually with a dye or a luminescent sensor.

The conditions of series [1]: patients treated with AChE inhibitors such as tacrine; cited from earlier work.
For series [2] the following is noted: cited from earlier work.
The conditions of series [3]: Alzheimer's disease patients; cited from earlier work.

We go through eight compounds from US20250101041A1, “POSITIVE ALLOSTERIC MODULATORS OF THE MUSCARINIC ACETYLCHOLINE RECEPTOR M4” (Vanderbilt University, priority 2022, published 2025).

For the compound `[2H]C1([2H])Cc2ncc(Nc3ccccc3F)cc2C([2H])([2H])N1c1nn2c(=O)ccnc2cc1C` [Compound 2-166, 7-(3-((2-fluorophenyl)amino)-7,8-dihydro-1,6-naphthyridin-6(5H)-yl-5,5,7,7-d4)-8-methyl-4H-pyrimido[1,2-b]pyridazin-4-one], at human mAChR M4, the Emax (as a rule, the size of the effect at its maximum, as opposed to the concentration needed) at 30 µM was found to be 84% and the EC50 (commonly the concentration at which the effect is half-maximal) turned out to be 2 nM.

In the case of `Cc1cc2nccc(=O)n2nc1N1CCc2ncc(Oc3ccccc3F)cc2C1` [Compound 3-1, 7-(3-(2-fluorophenoxy)-7,8-dihydro-1,6-naphthyridin-6(5H)-yl)-8-methyl-4H-pyrimido[1,2-b]pyridazin-4-one], on human mAChR M4, the Emax at 30 µM amounted to 75% and the EC50 was 40 nM.

Regarding `Cc1cc(=O)n2nc(N3CCc4ncc(Oc5ccccc5F)cc4C3)c(C)cc2n1` [Compound 3-2, 7-(3-(2-fluorophenoxy)-7,8-dihydro-1,6-naphthyridin-6(5H)-yl)-2,8-dimethyl-4H-pyrimido[1,2-b]pyridazin-4-one], on human mAChR M4, the Emax at 30 µM turned out to be 80% and the EC50 was found to be 55 nM.

As to `Cc1c(N2CCc3ncc(Oc4ccccc4F)cc3C2)nn2c(=O)ccnc2c1C` [Compound 3-3, 7-(3-(2-Fluorophenoxy)-7,8-dihydro-1,6-naphthyridin-6(5H)-yl)-8,9-dimethyl-4H-pyrimido[1,2-b]pyridazin-4-one], on human mAChR M4, the maximal response (Emax) at 30 µM amounted to 96% and the EC50 worked out at 29 nM.

For the compound `Cc1c(N2CCc3ncc(OCCN4CCOC4=O)cc3C2)nn2c(=O)ccnc2c1C` [Compound 3-4, 3-(2-((6-(8,9-Dimethyl-4-oxo-4H-pyrimido[1,2-b]pyridazin-7-yl)-5,6,7,8-tetrahydro-1,6-naphthyridin-3-yl)oxy)ethyl)oxazolidin-2-one], at human mAChR M4, the Emax at 30 µM worked out at 54% and the EC50 came out at 1060 nM.

As for `Cc1c(N2CCc3ncc(P(C)(C)=O)cc3C2)nn2c(=O)ccnc2c1C` [Compound 3-5, 7-(3-(Dimethylphosphoryl)-7,8-dihydro-1,6-naphthyridin-6(5H)-yl)-8,9-dimethyl-4H-pyrimido[1,2-b]pyridazin-4-one], the Emax at 30 µM on human mAChR M4 came to 77%.

Consider `Nc1c2c(nc3ccccc13)CCCC2` [tacrine], for which the “patients with elevated liver transaminases (hepatotoxicity)” value in series [1] is listed as “about 30%”.

As for `CCCCCCOc1nsnc1C1=CCCN(C)C1` [xanomeline], the catalepsy result in series [2] (animal models) is listed as “without causing catalepsy”. In series [2], the “activity in animal models with similar profiles to known antipsychotic drugs” value is on record as “active”. Also, in series [3], the “psychotic behavioral symptoms such as delusions, suspiciousness, vocal outbursts, and hallucinations” value is recorded as “reduce psychotic behavioral symptoms”; the “treatment induced side effects” value is given as “gastrointestinal effects”.
